According to patent US20100298447A1, “COMPOSITE PRODUCT OF LOW-SOLUBILITY DRUG AND SURFACTANT, AND PROCESS FOR PRODUCTION THEREOF” (priority 2007, published 2010):

Test: Solubility of aciclovir in water at room temperature
Type: physicochemical
Conditions: room temperature (25° C.)
Method: Thus, an S/O solution could not be obtained. Thus, an aciclovir dispersion was prepared in the form of an S/O solution.

For `Nc1nc2c(ncn2COCCO)c(=O)[nH]1` [aciclovir], the solubility in water was “very poor”.
